Reference: patent US7652037B2, “Methods of lowering lipid levels in a mammal” (City Of Hope, priority 2003, dated 2010)
Entries after “also recorded” stand apart in the source; their conditions may differ.

Columns and labels:
STZ-Diabetic Rats [1] = test: AGEs/ALEs (CML, CEL) in skin collagen by LC-ESI/MS/MS (Example 12); assay type: in vivo, rat
Procedure: Tail tendon collagen was isolated from each rat in Example 11 and the degree of AGE formation in collagen was assessed by measurement of fluorescent AGE after enzymatic digestion. Figarola et al., Diabetologia 46:1140-115, 2003. Skin collagen isolation and reduction was performed as described in Shaw et al., Methods Mol. Biol. 186:129-137, 2002. Levels of AGEs/ALEs were normalized to the lysine content of the collagen samples.
Ion-pair reversed-phase liquid chromatography/tandem mass spectroscopy analysis was performed using an Agilent Technologies™ LC1100 series system interfaced to a Micromass Quatro™ Ultima Triple Quadripole Mass Spectrometer. HPLC separation was achieved using a Phenomenex Synergi™ Hydro-RP […] 80A 150×2.0 mm column preceded by a Phenomenex C18 guard column. The column temperature was maintained at 25° C. and the flow was 0.2 mL/minute. The isocratic mobile phase consisted of 10% acetonitrile and 0.1% heptafluorobutyric acid in water. Total run time was 12 minutes; injection volume was 20 μL. The autoinjector temperature was 5° C. The electrospray ionization source of the mass spectrophotometer was operated in the positive ion mode with a cone gas flow of 190 L/hour and desolvation gas flow of 550 L/hour. The capillary voltage was set to 2.7 kV. Cone and collision cell voltages were optimized to 25 V and 13 eV for CML, 33 V and 12 eV d4CML, 24 V and 14 eV for CEL, […] and 14 eV for D8CEL, and […] and 16 eV for lysine, respectively. […] The desolvation temperature was increased to 300° C., and the solvent delay program was used from 0 to 3 minutes and 10 to 12 minutes. The fragmentation of these compounds can be induced under collision dissociation conditions and acidic mobile phase. The precursor→product ion combinations at m/z were 205.1→130.11 for CML, 209.12→134.12 for d4CML, 219.11→130.11 for CEL, 227.18→138.16 for d8CEL, 147.15→84.21 for lysine and 151.27→88.33 for DL-d4Lysine were used in multiple reaction monitoring (MRM) mode to determine these compounds. MassLynx™ version 3.5 software was used for data acquisition and processing.
All solutions of standards and internal standards were prepared in water. Standard solution containing both CML and CEL were prepared at six concentrations: 4, 10, 20, 40, 100 and 200 pmol/mL for CML and 2, 5, 10, 20, 50 and 100 pmol/mL for CEL. Quality control solutions were prepared at two concentrations: 7.5 and 150 pmol/mL for CML and 3.75 and 75 pmol/mL for CEL. A stock solution of heavy-labeled internal standards (d4CML and d8CEL) was prepared at 800 pmol/mL. For generation of a standard curve, 130 μL of standard solution was freshly mixed with 10 μL 0.1 M ammonium bicarbonate, 10 μL 0.05% HFBA and 10 μL internal standard stock solution to give a caliber. […]

[2] = Superoxide production, methylglyoxal with N-α-acetyl-lysine, WST-1 assay
Procedure: The superoxide radical scavenging activity of the compounds was evaluated using the WST-1 method described in Ukeda et al., Anal. Sci. 18:1151-1154, 2002. Briefly, methylglyoxal, was incubated with or without N-α-acetyl-lysine in 0.05 M chelex-treated sodium phosphate buffer, pH 7.4, in the presence of various concentrations of the inhibitor compounds. The production of superoxide was monitored spectrophotometrically at 438 nm, and compared with superoxide dismutase and Tiron, two known superoxide radical scavengers.

STZ-Diabetic Rats [3] = test: Kidney anatomy and histopathology (PAS, trichrome, Picrosirius red, TEM); assay type: in vivo, rat
Text: To quantitate glomerulosclerosis (defined as glomerular basement membrane thickening, mesangial hypertrophy, and capillary occlusion), kidney sections were stained with periodic acid Schiff (PAS) reagent. A total of 150 glomeruli were randomly chosen from each rat kidney (four different kidneys per treatment) and carefully graded for sclerosis, by a blinded evaluator. The degree of sclerosis in each glomerulus was graded subjectively on a scale of 1 to 4 as follows: grade 1, sclerotic area less than 25%; grade 2, sclerotic area 25-50%; grade 3, sclerotic area 51-75%; and grade 4, sclerotic area more than 75%. The glomerulosclerotic index (GSI) then was calculated using the following formula: GSI=Σ^4i=1 Fi (I), where Fi is the percentage of glomeruli in the rat with a given score of (I). See Wilkinson-Berka et al., Diabetes 51:3283-3289, 2002. To quantitate glomerulosclerosis, kidney sections were stained with periodic acid Schiff (PAS) reagent.
Cellular infiltrates were identified in the renal interstitium from 5 μm-thick kidney sections stained with PAS. Infiltrates in each kidney sample were graded as follows: + (patchy and light), ++ (patchy and dense), +++ (diffuse and dense with aggregates of neutrophils in tubules or in interstitium) also in a blinded manner. For collagen deposition staining in the kidneys, paraffin sections were randomly chosen from kidneys from each treatment group and stained with Masson's trichrome. Briefly, the sections were deparaffined, hydrated with water, and immersed in Mordant in Boiuin's solution for 10 minutes. The sections then were rinsed in water and stained with Mayer's hematoxylin for 6 minutes. After rinsing in water, Biebrich scarlet-acid fuchsin was added for 2 minutes, rinsed, phosphomolybdic-phosphotungstic solution added for 15 minutes, followed by aniline blue solution for 10 minutes. After rinsing the sections with water, glacial acetic acid was added for 20 seconds and then the slides were dehydrated with 95% ethanol. With this method, blue and red colors indicate collagen and cytoplasm staining, respectively. […]

## CC(C)(Oc1ccc(NC(=O)c2ccc3ccccc3c2)cc1)C(=O)O [LR-9, 4-(2-napthylcarboxamido) phenoxyisobutyric acid]
STZ-Diabetic Rats [1]
  CEL concentration in skin collagen: significantly limited the increase
  CML concentration in skin collagen: significantly limited the increase

## CC(Oc1cccc2cccnc12)C(=O)O (centres unmarked) [LR-74, 2-(8-quinolinoxy) propionic acid]
STZ-Diabetic Rats [1]
  CEL concentration in skin collagen: significantly limited the increase
  CML concentration in skin collagen: significantly limited the increase
[2]
  effect on superoxide production: little or no effect

## methylene bis(4,4′-(2-chlorophenylureidophenoxyisobutyric acid) [LR-90]
STZ-Diabetic Rats [3]
  basement membrane thickening (TEM photographs): reduced basement membrane thickening
  cellular infiltrates in the renal interstitium: prevented cell infiltration; also recorded: no neutrophils were detected
STZ-Diabetic Rats [3]; 32 weeks
  collagen deposited inside the glomeruli and the tubulointerstitium (Picrosirius red): reduced
